From patent EP3454861B1, “BENZOXAZINE OR QUINAZOLINE DERIVATIVES FOR USE IN THE TREATMENT OF ALZHEIMER'S DISEASE” (Biocodex, priority 2016, dated 2017)

What was measured:
[1] = tested on: GFAP; assay: ELISA of GFAP in mouse hippocampus after Aβ25-35; assay type: in vivo, souris
Source text: Le 1^er jour : une version « mélangée » (scrambled) du peptide amyloïde β25-35 (Sc.Aβ, témoin négatif) ou le peptide amyloïde β25-35 (Aβ25-35) est injecté par voie intra-cérébroventriculaire (ICV) (le peptide Aβ25-35 provoque l'intoxication cellulaire). Entre le 1^er jour et le 10^ème jour, les traitements sont administrés une fois par jour par voie intrapéritonéale (IP).
A la fin de la session de rétention d'évitement passif, le 10^ème jour, les animaux sont sacrifiés par décapitation. L'hippocampe et le cortex frontal sont disséqués et congelés dans l'azote liquide. L'hippocampe est utilisé pour mesurer le taux de peroxydation lipidique à l'aide d'une méthode colorimétrique et pour évaluer les taux de 4 marqueurs biochimiques par des tests ELISA. Le cortex est conservé à -80°C en attente d'analyses supplémentaires. Les plasmas sont également conservés en attente d'analyses supplémentaires. Les échantillons biologiques sont jetés après 3 mois.
Pour tous les dosages, les […] sont homogénéisés, après décongélation, dans un tampon Tris (Tris 50 mM, 150 mM NaCl, pH 7,5) et traités par ultrasons pendant 20 secondes. […] Pour chaque dosage, l'absorbance est lue à 450 nm et la concentration est calculée en utilisant la courbe standard. Les résultats sont exprimés en pg ou ng de marqueur par mg de tissu et en pourcentage de solution Sc.Aβ + véhicule. 6 échantillons par groupe (n = 36 kits ELISA) sont dosés en double.

[2] = tested on: neurones corticaux; assay: Oxidative stress (MetO-positive neurons) in cortical neurons after Aβ1-42; assay type: cell-based, rats; conditions: Rattus norvegicus, Cortical neurone, Aβ1-42 1,25 µM, 4 h (Aβ1-42 alone 136.98%), read-out: nombre de neurones positifs à MetO
Experimental: Des neurones corticaux de rats sont mis en culture comme dans la méthode décrite par Singer (1999) J. Neurosci. 19:2455-2463. Des rats femelles enceintes de 15 jours sont tuées par dislocation des cervicales (Rats Wistar, Janvier) et le fœtus est retiré de l'utérus. Les cortex sont prélevés et placés dans un milieu glacé de Leibovitz (L15, Panbiotech, Réf : P04-27055, lot : 9310614) contenant 2% de pénicilline (10 000 U/ml) et de streptomycine (10 mg/ml) (PS, Panbiotec, Réf : P06-07100, lot : 48101114) et 1% de sérum-albumine bovine (BSA, Panbiotech, Réf : P06-1391100, lot : H140603). Les cortex sont dissociés par trypsination (0,05% Panbiotech, Réf : P10-023100, lot : 5890314) pendant 20 minutes à 37°C. La réaction est stoppée par addition d'un milieu Eagle modifié de Dulbecco (DMEM, Panbiotech, réf P04-03600, lot : 9670913) contenant de la DNase I grade Il (0,1 mg/ml Panbiotech, Réf : P60-37780100, lot : H140508) et 10 % de sérum de veau fœtal (FCS, Invitrogen, Réf : 10270 à 098, lot : 41Q4120K). Les cellules sont dissociées mécaniquement par 3 passages à travers une pipette de 10 ml. Les cellules sont ensuite centrifugées à 515 g pendant 10 minutes à 4°C. […]

CCNC1=Nc2ccc(Cl)cc2C(C)(c2ccccc2)O1 (centres unmarked) [Etifoxine, chlorhydratede 6-chloro-2-éthylamino-4-méthyl-4-phényl-4H-[3,1]benzoxazine]
Expression GFAP ([1]; Aβ25-35/Etifoxine 12.5 mg/kg IP): 160,4 ± 10,2 % de Sc.Aβ/V
Expression GFAP ([1]; Aβ25-35/Etifoxine 25 mg/kg IP): 131,7 ± 4,3 % de Sc.Aβ/V
Expression GFAP ([1]; Aβ25-35/Etifoxine 50 mg/kg IP): 129,8 ± 2,7 % de Sc.Aβ/V
activity at 3 µM ([2]; étifoxine 3 µM): 108%
activity at 10 µM ([2]; étifoxine 10 µM): 103%
